Our source for the IC50 and Activity values is ChEMBL document CHEMBL1155104, “Gallic acid-based indanone derivatives as anticancer agents” (Bioorg Med Chem Lett, 2008).

The nature of data set [1]: Cytotoxicity against human KB403 cells after 24 hrs by MTT assay. Particulars: KB403, 24 h. Format: functional, cell-based. For orientation: Formazan colour is commonly taken as a measure of viable cells.
The subject of a further data set is WRL68. Briefly: Cytotoxicity against human WRL68 cells after 24 hrs by MTT assay. Format: functional, cell-based. Particulars: WRL68, 24 h.
For the next data set, the system named is Caco-2. The experiment in a line: Cytotoxicity against human CaCO2 cells after 24 hrs by MTT assay. Format: functional, cell-based. The conditions noted are these: Caco-2, 24 h.
The next data set has as its system HepG2. Briefly: Cytotoxicity against human HEPG2 cells after 24 hrs by MTT assay. Format: functional, cell-based. The conditions noted are these: HepG2, 24 h.
The test system of the next data set is MCF7. Briefly: Cytotoxicity against human MCF7 cells after 24 hrs by MTT assay. The conditions noted are these: MCF7, 24 h. Format: functional, cell-based.
Data set [2] can be described thus: Toxicity in human erythrocytes assessed as osmotic hemolysis. The format is cell-based. The conditions noted are these: erythrocyte.
Data set [3] is described as follows: Toxicity in human erythrocytes assessed as osmotic hemolysis at 258 uM. The format is cell-based. Particulars: erythrocyte.

As to `COc1cc2c(cc1OC)C(c1cc(OC)c(OC)c(OC)c1)CC2=O` (centres undefined), the IC50 in data set [1] is 140 µM; in the data set with WRL68, 196 µM; with Caco-2 it was 140 µM; with HepG2, 112 µM; with MCF7, not below 250 µM.

Regarding `CC(=O)O[C@H]1C(=O)[C@@]2(C)[C@H]([C@H](OC(=O)c3ccccc3)[C@]3(O)C[C@H](OC(=O)[C@H](O)[C@@H](NC(=O)c4ccccc4)c4ccccc4)C(C)=C1C3(C)C)[C@]1(OC(C)=O)CO[C@@H]1C[C@@H]2O` [PACLITAXEL], the IC50 was found to be 0.001 µM in data set [1]; 0.004 µM with WRL68; 0.008 µM in the data set on Caco-2; 0.009 µM in the data set with HepG2; 0.006 µM with MCF7.

For the molecule `COc1cc(C2CCc3cc(OC)c(OC)c(OC)c32)cc(OC)c1OC` (centres undefined), the half-inhibitory concentration (IC50) in data set [1] was not below 250 µM; with WRL68, 154 µM; in the data set with Caco-2, 115 µM; in the data set with HepG2, 89.7 µM; with MCF7, not below 250 µM.

For the molecule `COc1cc([C@@H]2c3cc4c(cc3[C@H](O)[C@H]3COC(=O)[C@H]23)OCO4)cc(OC)c1OC` [PODOFILOX], the concentration for half-maximal inhibition (IC50) was determined as 20.5 µM in data set [1]; 4.8 µM in the data set on WRL68; 0.002 µM in the data set on Caco-2; 4.8 µM in the data set with HepG2; 8.5 µM with MCF7.

Turning to `COc1cc(OC)c(C2CC(=O)c3cc(OC)c(OC)c(OC)c32)c(OC)c1` (centres undefined), the IC50 stood at 12.9 µM in data set [1]; 0.022 µM in the data set on WRL68; 226 µM in the data set on Caco-2; 1.49 µM with HepG2; 211 µM in the data set with MCF7. Besides, the Activity result in data set [2] is recorded as “Toxic”.

Consider `COc1cccc(C2CC(=O)c3cc(OC)c(OC)c(OC)c32)c1` (centres undefined), for which the concentration for half-maximal inhibition (IC50) (in data set [1]; in the data set with WRL68; in the data set with Caco-2; in the data set with HepG2; with MCF7) was not below 250 µM throughout.

On to `COc1ccc(C2CC(=O)c3cc(OC)c(OC)c(OC)c32)c(OC)c1OC` (centres undefined), for which the half-maximal inhibitory concentration (IC50) in data set [1] was 1.54 µM; in the data set with WRL68, 0.023 µM; in the data set on Caco-2, 206 µM; in the data set with HepG2, not below 250 µM; in the data set on MCF7, not below 250 µM. In addition, the Activity entry in data set [2] is “Toxic”.

Take `COc1cc2c(c(OC)c1OC)-c1c(oc3c(OC)c(OC)c(OC)cc13)C2=O`: the IC50 is not below 250 µM in data set [1]; 62.5 µM in the data set with WRL68; 112 µM in the data set on Caco-2; not below 250 µM in the data set with HepG2; 50 µM in the data set with MCF7.

As to `COc1cc(C2CC(=O)c3cc(OC)c(OC)c(OC)c32)cc(OC)c1OC` (centres undefined), the half-maximal inhibitory concentration (IC50) in data set [1] is 10.3 µM; in the data set with WRL68 it was 12.8 µM; in the data set with Caco-2, not below 250 µM; in the data set with HepG2, 9 µM; in the data set with MCF7, 2.2 µM. Also, the Activity result in data set [3] was “Non-toxic”.

Regarding `COc1cc2c(c(OC)c1OC)C(c1ccccc1)CC2=O` (centres undefined), the IC50 is 0.84 µM in data set [1]; not below 250 µM with WRL68; not below 250 µM in the data set with Caco-2; 188 µM with HepG2; not below 250 µM in the data set with MCF7. Further, the Activity result in data set [2] was “Toxic”.

With `COc1cc(C2CC(O)c3cc(OC)c(OC)c(OC)c32)cc(OC)c1OC` (centres undefined), the 50% inhibitory concentration (IC50) in data set [1] was 192 µM; with WRL68, 192 µM; in the data set with Caco-2, 6.4 µM; with HepG2, 102 µM; in the data set on MCF7, 244 µM.

Turning to `COc1cc(C2C/C(=N\O)c3cc(OC)c(OC)c(OC)c32)cc(OC)c1OC` (centres undefined), the half-inhibitory concentration (IC50) was 136 µM in data set [1]; 223 µM in the data set on WRL68; 49.6 µM in the data set on Caco-2; 124 µM with HepG2; not below 250 µM with MCF7.

For the molecule `COc1cc(C2=C(O)C(=O)c3cc(OC)c(OC)c(OC)c32)cc(OC)c1OC`, the half-maximal inhibitory concentration (IC50) in data set [1] was not below 250 µM; with WRL68, 124 µM; in the data set on Caco-2 it was not below 250 µM; in the data set with HepG2, 74.6 µM; with MCF7, not below 250 µM.

The IC50 is the concentration at which inhibition is half-maximal. A low value points to greater potency.
